These results are taken from patent US6506766B1 (Abbott Laboratories, priority 1998, dated 2003).

Data set [1] addresses T1, human glucocorticoid receptor-α [GRX] isoform (Homo sapiens, UniProt P04150).
T1 construct: host or cells: insect SF21 cells (baculovirus)
T1 sequence (P04150 1-777): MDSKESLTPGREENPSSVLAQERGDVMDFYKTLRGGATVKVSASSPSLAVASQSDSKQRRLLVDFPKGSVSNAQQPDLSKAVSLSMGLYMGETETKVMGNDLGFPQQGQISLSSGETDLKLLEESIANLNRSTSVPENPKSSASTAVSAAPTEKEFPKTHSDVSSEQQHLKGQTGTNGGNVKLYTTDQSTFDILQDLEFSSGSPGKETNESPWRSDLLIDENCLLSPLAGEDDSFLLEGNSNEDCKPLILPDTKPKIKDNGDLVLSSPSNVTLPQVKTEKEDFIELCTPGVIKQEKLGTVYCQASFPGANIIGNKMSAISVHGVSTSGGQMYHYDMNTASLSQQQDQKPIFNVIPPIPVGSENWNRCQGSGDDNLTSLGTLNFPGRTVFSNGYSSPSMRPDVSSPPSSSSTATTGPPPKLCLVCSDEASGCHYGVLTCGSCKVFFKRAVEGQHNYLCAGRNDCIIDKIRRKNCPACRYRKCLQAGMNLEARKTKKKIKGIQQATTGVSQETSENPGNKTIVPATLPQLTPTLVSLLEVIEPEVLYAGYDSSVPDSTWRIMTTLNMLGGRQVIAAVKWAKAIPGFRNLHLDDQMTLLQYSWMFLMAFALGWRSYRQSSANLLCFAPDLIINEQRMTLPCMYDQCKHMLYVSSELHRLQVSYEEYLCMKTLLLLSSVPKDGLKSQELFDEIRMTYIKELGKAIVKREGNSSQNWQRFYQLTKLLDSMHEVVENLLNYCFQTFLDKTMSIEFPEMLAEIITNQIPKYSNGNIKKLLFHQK
Nature of the data set: Radioligand binding with human glucocorticoid receptor cytosol ([3H]-dexamethasone competition). The following applies: GRX cytosol expressed in insect SF21 cells, [3H]-Dex ~0.9 nM, 4° C. overnight; Ki by Cheng-Prusoff, KL ~[…]; read-out: Ki (nM) GR.

Data set [2] addresses T2, human progesterone receptor-A [PRA] isoform (Homo sapiens, UniProt P06401).
T2 construct: host or cells: insect SF21 cells (baculovirus)
T2 sequence (P06401 1-769 isoform P06401-2): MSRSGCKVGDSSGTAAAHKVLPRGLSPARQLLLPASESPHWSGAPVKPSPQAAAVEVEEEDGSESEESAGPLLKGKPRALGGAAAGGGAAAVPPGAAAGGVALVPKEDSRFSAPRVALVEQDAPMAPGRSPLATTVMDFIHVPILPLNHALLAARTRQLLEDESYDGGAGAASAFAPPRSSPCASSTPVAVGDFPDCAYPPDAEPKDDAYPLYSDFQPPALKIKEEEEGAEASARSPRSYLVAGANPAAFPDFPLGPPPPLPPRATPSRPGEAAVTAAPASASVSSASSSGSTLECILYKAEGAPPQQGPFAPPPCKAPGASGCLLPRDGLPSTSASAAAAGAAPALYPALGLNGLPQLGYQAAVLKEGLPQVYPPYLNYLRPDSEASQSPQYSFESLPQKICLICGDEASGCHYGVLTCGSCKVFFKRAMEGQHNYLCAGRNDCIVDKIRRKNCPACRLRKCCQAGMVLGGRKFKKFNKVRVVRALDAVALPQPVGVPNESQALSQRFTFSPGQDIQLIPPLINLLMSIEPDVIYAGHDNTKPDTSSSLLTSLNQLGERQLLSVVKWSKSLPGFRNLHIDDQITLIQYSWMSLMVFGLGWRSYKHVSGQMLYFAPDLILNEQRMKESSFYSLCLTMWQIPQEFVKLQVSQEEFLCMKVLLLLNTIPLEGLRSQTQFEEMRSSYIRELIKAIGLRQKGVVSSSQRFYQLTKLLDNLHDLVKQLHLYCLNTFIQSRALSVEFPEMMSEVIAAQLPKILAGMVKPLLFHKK
Nature of the data set: Radioligand binding with human progesterone receptor cytosol ([3H]-progesterone competition). The following applies: PRA cytosol expressed in insect SF21 cells, [3H]Prog ~0.8 nM, 4° C. overnight; Ki by Cheng-Prusoff, KL ~4.5 nM; read-out: Ki (nM) PR.

By Ki is commonly meant a measure of affinity in units of concentration, obtained from inhibition or displacement. As usually defined, the melting point is the temperature of the solid-liquid transition. The compound `C=Cc1cccc2oc(=O)c3c4c(ccc3c12)NC(C)(C)C=C4C` [Example 339, 2,5-Dihydro-10-ethenyl-5-oxo-2,2,4-trimethyl-1H-[1]benzopyrano[3,4-f]quinoline] yielded a melting point of 218 to 224 °C. The Ki in data set [1] was found to be 112 nM. In addition, the Ki in data set [2] was at least 10000 nM.

`COC(=O)c1cccc2c1-c1ccc3c(c1C(c1ccccc1)O2)C(C)=CC(C)(C)N3` (stereo not drawn) [Example 335, Methyl 2,5-Dihydro-5-phenyl-2,2,4-trimethyl-1H-[1]benzopyrano[3,4-f]quinoline-10-carboxylate]: the melting point was 150 to 152 °C. The Ki in data set [1] turned out to be 652 nM. Also, in data set [2], the inhibition constant Ki is at least 10000 nM.

`COc1cccc2c1-c1ccc3c(c1C(CC=C1CCCCC1)O2)C(C)=CC(C)(C)N3` (stereo not drawn) [Example 187, 2,5-Dihydro-10-methoxy-5-(2-cyclohexylidenylethyl)-2,2,4-trimethyl-1H-[1]benzopyrano[3,4-f]quinoline] registered a melting point of 130 to 135 °C. In addition, the Ki in data set [1] was determined as 46 nM. Further, in data set [2], the inhibitory constant (Ki) came to 3900 nM.

Take `COc1cccc2c1-c1ccc3c(c1C(CNC(=O)OC(C)(C)C)O2)C(C)=CC(C)(C)N3` (stereo not drawn) [Example 206]: the melting point lay in the range of 130 to 135 °C. Moreover, the Ki in data set [1] came to 201 nM. The Ki in data set [2] was at least 10000 nM.
